Results from PubChem BioAssay AID248 (DTP/NCI, 2004).
Where “and” joins values, the source holds several entries; their conditions need not be identical. Equal entries are not always repeated. Inconclusive results and toxic doses are left out. Rule as the data show it: active = T/C of 150% or more; inactive = T/C below 125%.

Tested on: L1210 leukemia ip in BDF1 mice, survival T/C
Test: NCI In Vivo Anticancer Drug Screen. Data for tumor model L1210 Leukemia (intraperitoneal) in B6D2F1 (BDF1) mice
Settings: endpoint: mean survival time, higher = longer survival
Method in brief: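 Transplantable tumor model; survival measured in treated vs vehicle control mice. Value = treated/control.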

Measured: T/C

Cc1cc2oc(/C=N/NC(N)=S)c(C)c2cc1C
inactive: dose: 100.0 mg/kg/injection, schedule: Q01DX009 (ip), vehicle: Klucel (hydroxypropylcellulose) (HPC) 100 % of control | dose: 200.0 mg/kg/injection, schedule: Q01DX009 (ip), vehicle: Klucel (hydroxypropylcellulose) (HPC) 99 % of control | dose: 400.0 mg/kg/injection, schedule: Q01DX009 (ip), vehicle: Klucel (hydroxypropylcellulose) (HPC) 105 % of control

OCC(I)C(CO)[n+]1ccccc1 (stereo not drawn)
inactive: dose: 12.5 mg/kg/injection, schedule: Q01DX009 (ip), vehicle: saline 104 % of control | dose: 12.5 mg/kg/injection, schedule: Q04DX003 (ip), vehicle: saline 102 % of control | dose: 25.0 mg/kg/injection, schedule: Q01DX009 (ip), vehicle: saline 110 % of control | dose: 25.0 mg/kg/injection, schedule: Q04DX003 (ip), vehicle: saline 100 % of control | dose: 50.0 mg/kg/injection, schedule: Q01DX009 (ip), vehicle: saline 101 % of control | dose: 50.0 mg/kg/injection, schedule: Q04DX003 (ip), vehicle: saline 102 % of control

COc1cc2ccc(C(N)=O)cc2cc1OC
inactive: dose: 100.0 mg/kg/injection, schedule: Q01DX001 (ip), vehicle: other 98 % of control | dose: 100.0 mg/kg/injection, schedule: Q01DX009 (ip), vehicle: saline with Tween-80 92 % of control | dose: 100.0 mg/kg/injection, schedule: Q04DX003 (ip), vehicle: other 96 % of control | dose: 200.0 mg/kg/injection, schedule: Q01DX001 (ip), vehicle: other 102 % of control | dose: 200.0 mg/kg/injection, schedule: Q01DX009 (ip), vehicle: saline with Tween-80 95 % of control | dose: 200.0 mg/kg/injection, schedule: Q04DX003 (ip), vehicle: other 103 % of control | dose: 400.0 mg/kg/injection, schedule: Q01DX001 (ip), vehicle: other 100 % of control | dose: 400.0 mg/kg/injection, schedule: Q01DX009 (ip), vehicle: saline with Tween-80 98 % of control | dose: 400.0 mg/kg/injection, schedule: Q04DX003 (ip), vehicle: other 103 % of control

CCN(CC)P(=O)(N1CC1C)N1CC1C (stereo not drawn)
active: dose: 150.0 mg/kg/injection, schedule: Q01DX001 (ip), vehicle: saline 157 % of control
inactive: dose: 4.4 mg/kg/injection, schedule: Q01DX015 (ip), vehicle: saline 111 % of control | dose: 6.25 mg/kg/injection, schedule: Q01DX009 (ip), vehicle: saline 122 % of control | dose: 6.6 mg/kg/injection, schedule: Q01DX015 (ip), vehicle: saline 105 % of control | dose: 10.0 mg/kg/injection, schedule: Q01DX015 (ip), vehicle: saline 106 % of control | dose: 14.0 mg/kg/injection, schedule: Q01DX009 (ip), vehicle: saline 112 % of control | dose: 15.0 mg/kg/injection, schedule: Q01DX015 (ip), vehicle: saline 106 % of control | dose: 33.0 mg/kg/injection, schedule: Q01DX015 (ip), vehicle: saline 109 % of control | dose: 44.4 mg/kg/injection, schedule: Q01DX001 (ip), vehicle: saline 108 % of control and 115 % of control | dose: 50.0 mg/kg/injection, schedule: Q01DX015 (ip), vehicle: saline 102 % of control | dose: 66.6 mg/kg/injection, schedule: Q01DX001 (ip), vehicle: saline 121 % of control | dose: 75.0 mg/kg/injection, schedule: Q01DX009 (ip), vehicle: saline 90 % of control

O=C(O)c1c[nH]c2c(Cl)cccc2c1=O
inactive: dose: 100.0 mg/kg/injection, schedule: Q04DX002 (ip), vehicle: Klucel (hydroxypropylcellulose) (HPC) 100 % of control | dose: 200.0 mg/kg/injection, schedule: Q04DX002 (ip), vehicle: Klucel (hydroxypropylcellulose) (HPC) 96 % of control | dose: 400.0 mg/kg/injection, schedule: Q04DX002 (ip), vehicle: Klucel (hydroxypropylcellulose) (HPC) 107 % of control

O=C(O)c1cccc(O)c1[N+](=O)[O-]
inactive: dose: 100.0 mg/kg/injection, schedule: Q04DX003 (ip), vehicle: saline 97 % of control | dose: 200.0 mg/kg/injection, schedule: Q04DX003 (ip), vehicle: saline 95 % of control | dose: 400.0 mg/kg/injection, schedule: Q04DX003 (ip), vehicle: saline 97 % of control

CCCCC(CCC)(CCC)CCN
inactive: dose: 2.0 mg/kg/injection, schedule: Q01DX001 (ip), vehicle: carboxymethylcellulose (CMC) 98 % of control | dose: 2.5 mg/kg/injection, schedule: Q01DX015 (ip), vehicle: carboxymethylcellulose (CMC) 89 % of control | dose: 4.0 mg/kg/injection, schedule: Q01DX001 (ip), vehicle: carboxymethylcellulose (CMC) 103 % of control | dose: 5.0 mg/kg/injection, schedule: Q01DX015 (ip), vehicle: carboxymethylcellulose (CMC) 94 % of control | dose: 8.0 mg/kg/injection, schedule: Q01DX001 (ip), vehicle: carboxymethylcellulose (CMC) 108 % of control | dose: 10.0 mg/kg/injection, schedule: Q01DX015 (ip), vehicle: carboxymethylcellulose (CMC) 93 % of control | dose: 16.0 mg/kg/injection, schedule: Q01DX001 (ip), vehicle: carboxymethylcellulose (CMC) 90 % of control
